Source: patent publication US20250243180A1, “TARGETED PROTEIN DEGRADATION” (Monte Rosa Therapeutics AG, priority 2023, published 2025)
Like-named read-outs stand apart in the source and are kept apart here.

Assays:
NEK7 = NEK7 (Homo sapiens (Human), UniProt Q8TDX7+Q96SW2); assay: NEK7 NanoBiT degradation assay in Cal51 NEK7 NanoBiT cell line; assay type: cell-based; settings: Cal51 NEK7 NanoBiT cells, 24 hours; for Dmax: CAL-51
How it was run: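 EC50 comes from a 4-parameter fit of control-normalized luminescence. The luminescence reports HiBiT-NEK7 (endogenous knock-in) complemented by stably expressed LgBiT in Cal51 cells after 24 h compound exposure at 37 °C. Final concentrations ran 1 μM to 0.05 nM, with Endurazine substrate present in the medium throughout.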

CRBN-DDB1 = CRBN-DDB1 (Homo sapiens (Human), UniProt Q96SW2); assay: Compound binding to CRBN by HTRF assay
CRBN-DDB1, sequence (Q96SW2 whole entry): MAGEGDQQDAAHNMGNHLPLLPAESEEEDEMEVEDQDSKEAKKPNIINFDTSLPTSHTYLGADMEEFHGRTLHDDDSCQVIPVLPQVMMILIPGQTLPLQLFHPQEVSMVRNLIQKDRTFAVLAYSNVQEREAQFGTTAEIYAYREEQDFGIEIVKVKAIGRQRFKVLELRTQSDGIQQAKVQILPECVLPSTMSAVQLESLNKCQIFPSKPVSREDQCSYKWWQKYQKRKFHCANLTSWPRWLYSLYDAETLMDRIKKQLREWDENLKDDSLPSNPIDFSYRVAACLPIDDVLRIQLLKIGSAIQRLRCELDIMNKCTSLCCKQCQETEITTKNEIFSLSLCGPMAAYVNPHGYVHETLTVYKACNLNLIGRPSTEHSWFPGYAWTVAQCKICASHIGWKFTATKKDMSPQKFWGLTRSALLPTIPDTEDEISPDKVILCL
CRBN-DDB1, sequence (Q16531 whole entry partner): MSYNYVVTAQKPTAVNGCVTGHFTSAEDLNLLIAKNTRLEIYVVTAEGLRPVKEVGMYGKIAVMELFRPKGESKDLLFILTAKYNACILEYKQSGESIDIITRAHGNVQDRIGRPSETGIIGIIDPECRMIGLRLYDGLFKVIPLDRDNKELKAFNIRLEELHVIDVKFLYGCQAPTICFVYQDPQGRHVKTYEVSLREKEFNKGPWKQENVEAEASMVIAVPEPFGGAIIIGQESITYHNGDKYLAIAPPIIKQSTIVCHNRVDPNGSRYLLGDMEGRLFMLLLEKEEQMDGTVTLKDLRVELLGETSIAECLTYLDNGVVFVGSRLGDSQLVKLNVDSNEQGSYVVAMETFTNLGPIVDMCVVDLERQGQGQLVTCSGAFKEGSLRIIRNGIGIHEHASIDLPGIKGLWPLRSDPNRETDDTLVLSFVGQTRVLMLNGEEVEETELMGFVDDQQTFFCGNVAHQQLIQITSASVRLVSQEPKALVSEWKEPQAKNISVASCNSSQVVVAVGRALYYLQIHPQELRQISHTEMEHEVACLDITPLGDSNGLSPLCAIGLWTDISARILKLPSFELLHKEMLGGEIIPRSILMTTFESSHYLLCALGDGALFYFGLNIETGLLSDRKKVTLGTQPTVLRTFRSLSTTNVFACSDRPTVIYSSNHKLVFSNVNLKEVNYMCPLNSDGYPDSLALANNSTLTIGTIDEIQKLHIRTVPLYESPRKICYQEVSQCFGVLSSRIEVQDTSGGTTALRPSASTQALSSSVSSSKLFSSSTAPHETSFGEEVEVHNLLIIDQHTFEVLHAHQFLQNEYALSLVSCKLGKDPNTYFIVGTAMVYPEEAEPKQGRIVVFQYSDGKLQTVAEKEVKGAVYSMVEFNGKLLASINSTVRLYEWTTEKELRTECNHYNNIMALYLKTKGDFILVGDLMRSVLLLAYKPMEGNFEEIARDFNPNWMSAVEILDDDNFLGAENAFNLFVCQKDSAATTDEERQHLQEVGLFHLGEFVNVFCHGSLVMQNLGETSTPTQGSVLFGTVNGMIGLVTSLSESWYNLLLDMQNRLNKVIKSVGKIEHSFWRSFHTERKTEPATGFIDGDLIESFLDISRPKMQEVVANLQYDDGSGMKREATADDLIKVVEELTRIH
How it was run: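 Ki calculated via Cheng-Prusoff from geometric-mean EC50 values, after normalizing the HTRF ratio to lenalidomide (active) and DMSO (neutral) controls. Compounds (11 points, 1:3 steps) incubated 30 min at ambient temperature with CRBN-DDB1 2.5 nM, anti-His Tb cryptate and Cy5-thalidomide tracer 100 nM.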

[1] = NEK7 degradation, read-out: NanoBiT Dmax
[2] = NEK7 degradation, read-out: NanoBiT DC50

NEK7, sequence (Q8TDX7 whole entry): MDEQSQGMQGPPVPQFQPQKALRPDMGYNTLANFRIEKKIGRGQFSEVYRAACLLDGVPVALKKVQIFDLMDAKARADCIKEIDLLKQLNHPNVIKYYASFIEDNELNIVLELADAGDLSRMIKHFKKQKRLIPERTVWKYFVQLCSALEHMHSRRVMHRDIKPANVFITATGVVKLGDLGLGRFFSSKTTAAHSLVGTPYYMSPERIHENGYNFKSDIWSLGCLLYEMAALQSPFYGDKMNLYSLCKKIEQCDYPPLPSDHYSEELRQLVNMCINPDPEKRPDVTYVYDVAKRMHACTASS
NEK7, sequence (Q96SW2 whole entry): as the sequence (Q96SW2 whole entry) above
NEK7, sequence (Q16531 2-1140 partner): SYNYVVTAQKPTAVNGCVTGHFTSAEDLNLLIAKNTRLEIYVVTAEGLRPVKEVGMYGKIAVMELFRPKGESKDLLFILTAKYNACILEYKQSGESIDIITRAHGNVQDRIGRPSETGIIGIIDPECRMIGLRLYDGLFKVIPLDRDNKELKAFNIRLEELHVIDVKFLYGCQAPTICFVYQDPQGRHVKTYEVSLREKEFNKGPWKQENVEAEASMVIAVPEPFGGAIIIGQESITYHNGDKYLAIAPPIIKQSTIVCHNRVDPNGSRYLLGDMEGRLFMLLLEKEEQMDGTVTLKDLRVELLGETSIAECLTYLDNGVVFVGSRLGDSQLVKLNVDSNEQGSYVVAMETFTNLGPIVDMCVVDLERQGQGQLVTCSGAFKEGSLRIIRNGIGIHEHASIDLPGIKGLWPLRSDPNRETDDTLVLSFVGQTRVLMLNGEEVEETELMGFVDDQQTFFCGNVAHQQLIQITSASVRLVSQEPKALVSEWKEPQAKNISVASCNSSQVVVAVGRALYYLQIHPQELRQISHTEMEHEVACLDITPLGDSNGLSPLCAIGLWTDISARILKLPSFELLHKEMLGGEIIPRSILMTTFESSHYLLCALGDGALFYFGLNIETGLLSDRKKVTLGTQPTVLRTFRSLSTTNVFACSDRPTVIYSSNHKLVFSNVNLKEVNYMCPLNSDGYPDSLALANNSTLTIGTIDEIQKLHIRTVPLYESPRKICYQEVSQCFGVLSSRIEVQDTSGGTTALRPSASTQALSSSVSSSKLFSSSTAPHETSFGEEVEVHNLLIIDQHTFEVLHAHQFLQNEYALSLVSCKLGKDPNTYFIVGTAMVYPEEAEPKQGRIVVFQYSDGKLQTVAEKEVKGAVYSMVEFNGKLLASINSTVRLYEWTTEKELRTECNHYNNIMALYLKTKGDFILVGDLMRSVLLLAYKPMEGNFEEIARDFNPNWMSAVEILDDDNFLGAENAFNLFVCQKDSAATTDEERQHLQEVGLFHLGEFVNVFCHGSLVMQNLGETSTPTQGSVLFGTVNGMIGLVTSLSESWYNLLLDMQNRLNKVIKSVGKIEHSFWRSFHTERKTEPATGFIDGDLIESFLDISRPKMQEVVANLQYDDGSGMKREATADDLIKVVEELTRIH

Compound | Dmax (NEK7; read-out: NEK7 NanoBiT Dmax) [%] | Dmax (NEK7; [1]) [%] | DC50 (NEK7; read-out: NEK7 NanoBiT DC50) [nM] | DC50 (NEK7; [2]) [nM] | EC50 (CRBN-DDB1) [nM] | EC50 (CRBN-DDB1; HTRF class, Cereblon binding) [nM]
CC(C)(C(=O)NCc1cc(Cl)c(C2CCC(=O)NC2=O)c(Cl)c1)C1CCCCC1 (stereo not drawn) [Compound 211] | 90 | > 75 | 8 | ≤ 100 | 900 | 100 to 1000
Cc1nc(C(C)(C)C(=O)NCc2cc(Cl)c(C3CCC(=O)NC3=O)c(Cl)c2)oc1C (stereo not drawn) [Compound 212] | 90 | > 75 | 6 | ≤ 100 | 70 | ≤ 100
CC(C)(C(=O)NCc1cc(Cl)c(C2CCC(=O)NC2=O)c(Cl)c1)C1CCCC1 (stereo not drawn) [Compound 213] | 78 | > 75 | 33 | ≤ 100 | 80 | ≤ 100
CC(C)(C(=O)NCc1cc(Cl)c(C2CCC(=O)NC2=O)c(Cl)c1)c1nccc(CO)n1 (stereo not drawn) [Compound 215] | 65 | 50 to 75 | 118 | 100 to 1000 | 120 | 100 to 1000
COc1nc(C(C)(C)C(=O)NCc2cc(Cl)c(C3CCC(=O)NC3=O)c(Cl)c2)ncc1C (stereo not drawn) [Compound 216] | 82 | > 75 | 21 | ≤ 100 | 100 | ≤ 100
COCc1ccnc(C(C)(C)C(=O)NCc2cc(Cl)c(C3CCC(=O)NC3=O)c(Cl)c2)n1 (stereo not drawn) [Compound 217] | 56 | 50 to 75 | 327 | 100 to 1000 | 150 | 100 to 1000
CC(C)(C(=O)NCc1cc(Cl)c(C2CCC(=O)NC2=O)c(Cl)c1)c1nc(C2CC2)no1 (stereo not drawn) [Compound 218] | 71 | 50 to 75 | 49 | ≤ 100 | 80 | ≤ 100
CC(C)(C(=O)NCc1cc(Cl)c(C2CCC(=O)NC2=O)c(Cl)c1)c1nc(C(F)F)no1 (stereo not drawn) [Compound 219] | 72 | 50 to 75 | 47 | ≤ 100 | 80 | ≤ 100
CC(C)(C(=O)NCc1cc(Cl)c(C2CCC(=O)NC2=O)c(Cl)c1)c1nocc1C(F)(F)F (stereo not drawn) [Compound 220] | 91 | > 75 | 8 | ≤ 100 | 150 | 100 to 1000
COc1cnc(C(C)(C)C(=O)NCc2cc(Cl)c(C3CCC(=O)NC3=O)c(Cl)c2)nc1C (stereo not drawn) [Compound 221, N-(3,5-dichloro-4-(2,6-dioxopiperidin-3-yl)benzyl)-2-(5-methoxy-4-methylpyrimidin-2-yl)-2-methylpropanamide] | 83 | > 75 | 19 | ≤ 100 | 80 | ≤ 100
COCc1cnc(C(C)(C)C(=O)NCc2cc(Cl)c(C3CCC(=O)NC3=O)c(Cl)c2)cn1 (stereo not drawn) [Compound 222, N-(3,5-dichloro-4-(2,6-dioxopiperidin-3-yl)benzyl)-2-(5-(methoxymethyl)pyrazin-2-yl)-2-methylpropanamide] | 73 | 50 to 75 | 54 | ≤ 100 | 160 | 100 to 1000
CC(C)(C(=O)NCc1cc(Cl)c(C2CCC(=O)NC2=O)c(Cl)c1)c1ccc(OC(F)(F)F)nn1 (stereo not drawn) [Compound 223, N-(3,5-dichloro-4-(2,6-dioxopiperidin-3-yl)benzyl)-2-methyl-2-(6-(trifluoromethoxy)pyridazin-3-yl)propanamide] | 91 | > 75 | 8 | ≤ 100 | 90 | ≤ 100
Cc1nnc(C2(C(=O)NCc3cc(Cl)c(C4CCC(=O)NC4=O)c(Cl)c3)CCC2)o1 (stereo not drawn) [Compound 226, N-(3,5-dichloro-4-(2,6-dioxopiperidin-3-yl)benzyl)-1-(5-methyl-1,3,4-oxadiazol-2-yl)-cyclobutane-1-carboxamide] | 54 | 50 to 75 | 556 | 100 to 1000 | 130 | 100 to 1000
COc1conc1C(C)(C)C(=O)NCc1cc(Cl)c(C2CCC(=O)NC2=O)c(Cl)c1 (stereo not drawn) [Compound 227, N-(3,5-dichloro-4-(2,6-dioxopiperidin-3-yl)benzyl)-2-(4-methoxyisoxazol-3-yl)-2-methylpropanamide] | 92 | > 75 | 6 | ≤ 100 | 110 | 100 to 1000
COCc1ccc(C(C)(C)C(=O)NCc2cc(Cl)c(C3CCC(=O)NC3=O)c(Cl)c2)nn1 (stereo not drawn) [Compound 228] | 85 | > 75 | 18 | ≤ 100 | 150 | 100 to 1000
CC(C)(C(=O)NCc1cc(Cl)c(C2CCC(=O)NC2=O)c(Cl)c1)c1ncc(OC(F)(F)F)cn1 (stereo not drawn) [Compound 229, N-(3,5-dichloro-4-(2,6-dioxopiperidin-3-yl)benzyl)-2-methyl-2-(5-(trifluoromethoxy)-pyrimidin-2-yl)propanamide] | 88 | > 75 | 12 | ≤ 100 | 120 | 100 to 1000
CC(C)(C(=O)NCc1cc(Cl)c(C2CCC(=O)NC2=O)c(Cl)c1)c1cc(C(F)(F)F)on1 (stereo not drawn) [Compound 230, N-(3,5-dichloro-4-(2,6-dioxopiperidin-3-yl)benzyl)-2-methyl-2-(5-(trifluoromethyl)isoxazol-3-yl)propanamide] | 83 | > 75 | 23 | ≤ 100 | 110 | 100 to 1000
CC(C)(C(=O)NCc1cc(Cl)c(C2CCC(=O)NC2=O)c(Cl)c1)c1ncc(CO)cn1 (stereo not drawn) [Compound 231, N-(3,5-dichloro-4-(2,6-dioxopiperidin-3-yl)benzyl)-2-(5-(hydroxymethyl)pyrimidin-2-yl)-2-methylpropanamide] | 82 | > 75 | 23 | ≤ 100 | 140 | 100 to 1000
CC(C)(C(=O)NCc1cc(Cl)c(C2CCC(=O)NC2=O)c(Cl)c1)c1cnc(C2CC2)cn1 (stereo not drawn) [Compound 232] | 93 | > 75 | 3 | ≤ 100 | 150 | 100 to 1000
COCc1nc(C(C)(C)C(=O)NCc2cc(Cl)c(C3CCC(=O)NC3=O)c(Cl)c2)ncc1C (stereo not drawn) [Compound 233, N-(3,5-dichloro-4-(2,6-dioxopiperidin-3-yl)benzyl)-2-(4-(methoxymethyl)-5-methylpyrimidin-2-yl)-2-methylpropanamide] | 74 | 50 to 75 | 29 | ≤ 100 | 190 | 100 to 1000
CCOc1cnc(C(C)(C)C(=O)NCc2cc(Cl)c(C3CCC(=O)NC3=O)c(Cl)c2)cn1 (stereo not drawn) [Compound 234, N-(3,5-dichloro-4-(2,6-dioxopiperidin-3-yl)benzyl)-2-(5-ethoxypyrazin-2-yl)-2-methylpropanamide] | 97 | > 75 | 1 | ≤ 100 | 70 | ≤ 100
CC(C)(C(=O)NCc1cc(Cl)c(C2CCC(=O)NC2=O)c(Cl)c1)c1ncc(C(=O)O)cn1 (stereo not drawn) [Compound 235, 2-(1-((3,5-dichloro-4-(2,6-dioxopiperidin-3-yl)benzyl)amino)-2-methyl-1-oxopropan-2-yl)pyrimidine-5-carboxylic acid] | 11 | ≤ 50 | 1000 | > 1000 | 560 | 100 to 1000
Cc1ocnc1C(C)(C)C(=O)NCc1cc(Cl)c(C2CCC(=O)NC2=O)c(Cl)c1 (stereo not drawn) [Compound 236] | 71 | 50 to 75 | 41 | ≤ 100 | 250 | 100 to 1000
[2H]C([2H])([2H])C(C(=O)NCc1cc(Cl)c(C2CCC(=O)NC2=O)c(Cl)c1)(c1ncc(C)cn1)C([2H])([2H])[2H] (stereo not drawn) [Compound 237] | 87 | > 75 | 11 | ≤ 100 | 150 | 100 to 1000
CC(C)(O)c1cnc(C(C)(C)C(=O)NCc2cc(Cl)c(C3CCC(=O)NC3=O)c(Cl)c2)cn1 (stereo not drawn) [Compound 238, N-(3,5-dichloro-4-(2,6-dioxopiperidin-3-yl)benzyl)-2-(5-(2-hydroxypropan-2-yl)pyrazin-2-yl)-2-methylpropanamide] | 63 | 50 to 75 | 153 | 100 to 1000 | 170 | 100 to 1000
Cc1nc(CNC(=O)C(C)(C)c2ccccc2)cc(Cl)c1C1CCC(=O)NC1=O (stereo not drawn) [Compound 239, N-((4-chloro-5-(2,6-dioxopiperidin-3-yl)-6-methylpyridin-2-yl)methyl)-2-methyl-2-phenylpropanamide] | 47 | ≤ 50 | 909 | 100 to 1000 | 660 | 100 to 1000
CC(C)(C(=O)NCc1cc(Cl)c(C2CCC(=O)NC2=O)c(Cl)c1)c1cnc(CC(F)F)cn1 (stereo not drawn) [Compound 240] | 69 | 50 to 75 | 79 | ≤ 100 | 150 | 100 to 1000
